These results are taken from patent publication US10435400B2, “2,4-disubstituted phenylene-1,5-diamine derivatives and applications thereof, and pharmaceutical compositions and pharmaceutically acceptable compositions prepared therefrom” (SHANGHAI HAIYAN PHARMACEUTICAL TECHNOLOGY CO., LTD., priority 2014, dated 2019).

Assay [1] deals with A431 cells. The assay can be described thus: Cytostatic activity by MTT method, A431 cells.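 Also: viability read by MTT reduction after compound exposure, with MTT incubated for a further 4 h at 37 °C under 5% CO2 in 96-well plates.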 The settings on record: read-out: A431 cells (IC50/nM). (Tetrazolium dyes change colour on reduction, which living cells bring about.)
Method: (§1) After rinsed for one time, 1.5 ml trypsin/EDTA was added to digest the adherent cells until the cells detached, and then 3.5 ml of medium was added to terminate the trypsinization. The digested cell suspension was transferred to a 15 ml falcon tube, and spun at 1300 rpm for 3 min, the supernatant was discarded, and cells were suspended in fresh medium.
(§2) The cells were added into the incubator after addition of the test compound, and incubated for 72 h, 10 μl of 5 mg/ml MTT (Sigma, M5655) solution was added to each well of the plate, and incubated the 96-well plates at 37° C. 5% CO2 for 4 h in a incubator.
(§3) The plates were spun at 2000 rpm for 5 min.
The subject of a further assay is NIH3T3 cells. The experiment in a line: Cytotoxicity by MTT method, NIH3T3 cells.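 Also: cells grown in 96-well plates with compound for 72 h, then given MTT for a further 4 h at 37 °C under 5% CO2.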 The format is cell-based. The settings on record: cytotoxicity, MTT, 72 h, read-out: NIH3T3 cells MTT assay (IC50/nM).
Assay [2] concerns H1975 cells. The experiment in a line: Cytostatic activity by MTT method, H1975 cells. The assay is classed as cell-based. The settings on record: MTT; for IC50: 72 h, read-out: H1975 cells (IC50/nM); for selective inhibitory activity against the cell growth [IC50 (A431 cells)/IC50 (H1975 cells)]: ratio of IC50 values.
Method: MTT assay used the method well known to those skilled in the art, and the reagents used in the method can be commercially obtained. […] After rinsed for one time, 1.5 ml trypsin/EDTA was added to digest the adherent cells until the cells detached, and then 3.5 ml of medium was added to terminate the trypsinization. The digested cell suspension was transferred to a 15 ml falcon tube, and spun at 1300 rpm for 3 min, the supernatant was discarded, and cells were suspended in fresh medium. […] The plates were spun at 2000 rpm for 5 min.
Assay [3] concerns H1975 cells. The assay can be described thus: ELISA screening EGFR T790M inhibitor for cell activity, H1975 cells. The settings on record: ELISA; for Selective inhibitory activities of target on cellular level [IC50 (A431 cells)/IC50 (H1975 cells)]: ratio of IC50 values; for IC50: compound 1 h, read-out: H1975 cells (IC50/nM). The assay is classed as cell-based. (ELISA stands for enzyme-linked immunosorbent assay.)

The test system of assay [4] is A431 cells. The assay can be described thus: ELISA cell activity, EGF-stimulated A431 cells.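 Also: Serum-starved A431 cells pretreated with compound for 1 h, then stimulated with EGF for 45 min, lysates read by ELISA (OD450 minus OD570), EGF-only wells as control.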 The assay is classed as cell-based. As to conditions: ELISA, compound 1 h then EGF 45 minutes, read-out: A431 cells (IC50/nM).
Method: The reagents, preparation methods of the solution, as well as the procedures of cell treatments and preparation of lysate, and the test steps of ELISA in the following method were conducted according to the instructions of R&D DYC3570, R&D DYC1095E and R&D DYC1095BE.
Cell lysates: cell lysis buffer+10 μg/ml Aprotinin (Sigma), 10 μg/ml Leupeptin (Sigma). All reagents were prepared when using.
(2) The medium of A431 cells was changed to 90 ul of DMEM FBS free medium, and incubated overnight.
(3) The test compounds were diluted according to the method in MTT assay, 10 μl of diluted compound or DMSO was added to the corresponding plate well, and incubated at 37° C. with 5% CO2 for 1 h. The final concentration of DMSO was 0.5%. 10 μl of 2 μg/L EGF was then added to each well except the cell control well, 10 μl of FBS free DMEM was added to the well, and incubated for 45 minutes; the EGF-free and compound treatment-free cells were used as cell control, and the compound treatment-free but only EGF-treated cells were used as EGF control.
(4) 100 μl cell lysate was added after aspirating the medium, sealed and placed in refrigerator at −80° C. overnight.
The assay was operated according to the instructions of R&D DYC3570E.
(5) 40 μl of cell lysis buffer and 60 μl of cell lysates were added, and incubated at 25° C. for 2 h under shaking;
(7) Detection antibody was diluted according to a predetermined ratio of kit instruction by using IC dilution, and 100 μl of the diluted Detection Antibody was added to each well, and incubated at 25° C. for 1 h under shaking in darkness;
(9) reagent A and reagent B of TMB substrate (R & D DY999) were mixed at 1:1, 100 μl of substrate was added to each well, and incubated at 25° C. for 20 minutes under shaking in darkness;
(11) The OD450 values and OD570 values of the cell control, blank control and compound treatment were measured respectively by using microplate reader (Thermo Multiskan K3), and the corresponding OD570 values were subtracted from OD450 values of the same wells to get the ODEGF, ODcompound and ODcell respectively.
For another assay, the target named is EGFR WT kinase (Homo sapiens (Human), UniProt P00533). The assay can be described thus: Wild type EGFR kinase inhibition test (z-lyte). The assay is classed as biochemical. The settings on record: 10 μM ATP.
Chain of EGFR WT kinase (P00533 25-1210): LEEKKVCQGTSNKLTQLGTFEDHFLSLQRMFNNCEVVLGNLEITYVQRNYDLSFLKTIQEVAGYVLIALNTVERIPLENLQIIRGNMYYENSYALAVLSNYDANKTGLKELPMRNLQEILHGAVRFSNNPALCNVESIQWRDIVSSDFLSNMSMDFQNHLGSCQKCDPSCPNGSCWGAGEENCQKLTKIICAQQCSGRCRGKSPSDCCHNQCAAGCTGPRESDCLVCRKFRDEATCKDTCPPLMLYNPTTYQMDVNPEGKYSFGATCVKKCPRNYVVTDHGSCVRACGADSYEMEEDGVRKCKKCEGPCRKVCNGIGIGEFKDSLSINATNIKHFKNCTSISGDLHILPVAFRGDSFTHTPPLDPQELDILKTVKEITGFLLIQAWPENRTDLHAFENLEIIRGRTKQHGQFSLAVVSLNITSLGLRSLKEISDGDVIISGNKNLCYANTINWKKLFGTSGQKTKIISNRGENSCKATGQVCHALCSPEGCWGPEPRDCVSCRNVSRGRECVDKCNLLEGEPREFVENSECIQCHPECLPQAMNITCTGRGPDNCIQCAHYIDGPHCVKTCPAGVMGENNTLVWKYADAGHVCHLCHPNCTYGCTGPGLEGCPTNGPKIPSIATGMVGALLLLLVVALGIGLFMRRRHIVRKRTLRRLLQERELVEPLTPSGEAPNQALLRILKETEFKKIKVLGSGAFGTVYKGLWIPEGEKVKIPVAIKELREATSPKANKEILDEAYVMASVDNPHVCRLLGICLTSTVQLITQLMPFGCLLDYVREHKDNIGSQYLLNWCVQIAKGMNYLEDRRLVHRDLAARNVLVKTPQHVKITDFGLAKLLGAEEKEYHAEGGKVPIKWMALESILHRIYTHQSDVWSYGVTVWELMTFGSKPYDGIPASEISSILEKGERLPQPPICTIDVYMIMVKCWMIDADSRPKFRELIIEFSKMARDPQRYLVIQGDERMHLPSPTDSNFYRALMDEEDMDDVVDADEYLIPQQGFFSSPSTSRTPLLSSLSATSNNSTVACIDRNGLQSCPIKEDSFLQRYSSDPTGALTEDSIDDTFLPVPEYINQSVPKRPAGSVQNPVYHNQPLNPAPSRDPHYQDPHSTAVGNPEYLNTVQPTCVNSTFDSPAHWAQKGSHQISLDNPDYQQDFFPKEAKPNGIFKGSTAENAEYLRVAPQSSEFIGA

Read-outs that look alike come from different tables or passages of the source.

Method for NIH3T3 cells: as §1, §2, §3

Turning to `C=CC(=O)Nc1cc(Nc2nccc(-c3cnc4c(ccn4C)c3)n2)c(OC)cc1N(C)CCN(C)C` [Compound Z-16, N-(2-((2-(dimethylamino)ethyl)(methyl)amino)-4-methoxy-5-((4-(1-methyl-1H-pyrrolo[2,3-b]pyridin-5-yl)pyrimidin-2-yl)amino)phenyl)acrylamide], the IC50 in the assay with A431 cells [1] (Homo sapiens, A-431, 72 h) is 871 nM; in the assay with NIH3T3 cells (Mus musculus, NIH3T3), over 10000 nM; in the assay with H1975 cells [2] (Homo sapiens, NCI-H1975), 9 nM; in the assay on H1975 cells [3] (Homo sapiens, NCI-H1975) it was 10 nM; in the assay with A431 cells [4] (Homo sapiens, A-431), 153 nM; against EGFR WT kinase it was 4 nM. The “selective inhibitory activity against the cell growth [IC50 (A431 cells)/IC50 (H1975 cells)]” value (shortened to “selective inhibitory activity”) in the assay with H1975 cells [2] is 97. The “Selective inhibitory activities of target on cellular level [IC50 (A431 cells)/IC50 (H1975 cells)]” value (“Selective inhibitory activities” for short) in the assay with H1975 cells [3] was determined as 15.3.

With `C=CC(=O)Nc1cc(Nc2nccc(-c3cnc4c(ccn4C)c3)n2)c(OC)cc1N1CC(N(C)C)C1` [Compound Z-27], the IC50 with A431 cells [1] (MTT, 72 h) was found to be 2480 nM; in the assay with NIH3T3 cells, 7960 nM; in the assay with H1975 cells [2], 49 nM; in the assay with H1975 cells [3], 44 nM; in the assay on A431 cells [4], 955 nM; against EGFR WT kinase, 19 nM. Besides, the “selective inhibitory activity” value with H1975 cells [2] is listed as 50.1. Besides, the “Selective inhibitory activities” value in the assay on H1975 cells [3] is on record as 21.7.

`C=CC(=O)Nc1cc(Nc2ncc(Cl)c(-c3cnc4c(cnn4C)c3)n2)c(OC)cc1N(C)CCN(C)C` [Compound Z-39]: the IC50 with A431 cells [1] (MTT, 72 h) is 918 nM; in the assay on NIH3T3 cells, 8890 nM; with H1975 cells [2], 16 nM; in the assay with H1975 cells [3], 41 nM; with A431 cells [4], 660 nM; on EGFR WT kinase it was 33 nM. In addition, the “selective inhibitory activity” value with H1975 cells [2] amounted to 57.4. For the same compound, the “Selective inhibitory activities” value in the assay with H1975 cells [3] came out at 16.1.

For `C=CC(=O)Nc1cc(Nc2ncc(Cl)c(-c3c(C)nn(C)c3C)n2)c(OC)cc1N(C)CCN(C)C` [Compound Z-91, N-(5-(5-chloro-4-(1,3,5-trimethyl-1H-pyrazol-4-yl)pyrimidin-2-ylamino)-2-((2-(dimethylamino)ethyl)(methyl)amino)-4-methoxyphenyl)acrylamide], the IC50 with A431 cells [1] (Homo sapiens, A-431, 72 h) is 3610 nM; in the assay on NIH3T3 cells (Mus musculus, NIH3T3), over 10000 nM; in the assay with H1975 cells [2] (Homo sapiens, NCI-H1975), 36 nM; with H1975 cells [3] (Homo sapiens, NCI-H1975), 90 nM; with A431 cells [4] (Homo sapiens, A-431) it was 3280 nM; against EGFR WT kinase it was 195 nM. In addition, the “selective inhibitory activity” value in the assay on H1975 cells [2] is on record as 100.3. Besides, the “Selective inhibitory activities” value in the assay with H1975 cells [3] is given as 36.4.

For `C=CC(=O)Nc1cc(Nc2ncc(Cl)c(-c3cn(C)nc3C)n2)c(OC)cc1N(C)CCN(C)C` [Compound Z-94, N-(5-(5-chloro-4-(1,3-dimethyl-1H-pyrazol-4-yl)pyrimidin-2-ylamino)-2-((2-(dimethylamino)ethyl)(methyl)amino)-4-methoxyphenyl)acrylamide], the IC50 is 645 nM with A431 cells [1] (Homo sapiens, A-431, 72 h); over 10000 nM with NIH3T3 cells (Mus musculus, NIH3T3); 8 nM in the assay with H1975 cells [2] (Homo sapiens, NCI-H1975); 16 nM with H1975 cells [3] (Homo sapiens, NCI-H1975); 372 nM with A431 cells [4] (Homo sapiens, A-431); 20 nM against EGFR WT kinase. In addition, the “selective inhibitory activity” value with H1975 cells [2] was 80.6. Also, the “Selective inhibitory activities” value with H1975 cells [3] came to 23.3.

Take `C=CC(=O)Nc1cc(Nc2ncc(Cl)c(-c3cn(C)nc3C)n2)c(OC)cc1N1CCC(N(C)C)CC1` [Compound Z-95, N-(5-(5-chloro-4-(1,3-dimethyl-1H-pyrazol-4-yl)pyrimidin-2-ylamino)-2-(4-(dimethylamino)piperidin-1-yl)-4-methoxyphenyl)acrylamide]: the IC50 in the assay on A431 cells [1] (Homo sapiens, A-431, 72 h) is 5450 nM; with NIH3T3 cells (Mus musculus, NIH3T3), over 10000 nM; in the assay with H1975 cells [2] (Homo sapiens, NCI-H1975) it was 45 nM; in the assay with H1975 cells [3] (Homo sapiens, NCI-H1975) it was 41 nM; in the assay with A431 cells [4] (Homo sapiens, A-431), 4960 nM; against EGFR WT kinase it was 328 nM. Also, the “selective inhibitory activity” value in the assay on H1975 cells [2] amounted to 121.1. In addition, the “Selective inhibitory activities” value in the assay with H1975 cells [3] worked out at 121.

In the case of `C=CC(=O)Nc1cc(Nc2ncc(Cl)c(-c3ccn(C)c3)n2)c(OC)cc1N(C)CCN(C)C` [Compound Z-99, N-(5-(5-chloro-4-(1-methyl-1H-pyrrol-3-yl)pyrimidin-2-ylamino)-2-((2-(dimethylamino)ethyl)(methyl)amino)-4-methoxyphenyl)acrylamide], the IC50 in the assay with A431 cells [1] (Homo sapiens, A-431, 72 h) amounted to 1040 nM; in the assay on NIH3T3 cells (Mus musculus, NIH3T3), 5990 nM; with H1975 cells [2] (Homo sapiens, NCI-H1975) it was 40 nM; in the assay on H1975 cells [3] (Homo sapiens, NCI-H1975), 57 nM; in the assay on A431 cells [4] (Homo sapiens, A-431) it was 663 nM; at EGFR WT kinase, 38 nM. In addition, the “selective inhibitory activity” value in the assay on H1975 cells [2] is 26. Moreover, the “Selective inhibitory activities” value with H1975 cells [3] came out at 11.6.

As for `C=CC(=O)Nc1cc(Nc2ncc(Cl)c(-c3cnn(C)c3)n2)c(OC)cc1N1CCN(C)CC1` [Compound Z-100, N-(5-(5-chloro-4-(1-methyl-1H-pyrazol-4-yl)pyrimidin-2-ylamino)-4-methoxy-2-(4-methylpiperazin-1-yl)phenyl)acrylamide], the IC50 is 1230 nM in the assay on A431 cells [1] (Homo sapiens, A-431, 72 h); 3880 nM with NIH3T3 cells (Mus musculus, NIH3T3); 24 nM with H1975 cells [2] (Homo sapiens, NCI-H1975); 24 nM in the assay on H1975 cells [3] (Homo sapiens, NCI-H1975); 8430 nM in the assay with A431 cells [4] (Homo sapiens, A-431); 297 nM against EGFR WT kinase. In the assay on H1975 cells [2], the “selective inhibitory activity” value is given as 51.1. The “Selective inhibitory activities” value in the assay with H1975 cells [3] was 351.2.

For `C=CC(=O)Nc1cc(Nc2nccc(-c3cnc4c(ccn4C)c3)n2)c(OC)cc1N(C)CCN(C)C(C)C` [Compound Z-115], the IC50 in the assay with A431 cells [1] (MTT, 72 h) was 2500 nM; in the assay on NIH3T3 cells, over 10000 nM; in the assay on H1975 cells [2], 38 nM; with H1975 cells [3] it was 90 nM; with A431 cells [4] it was 469 nM; on EGFR WT kinase it was 22 nM. Further, the “selective inhibitory activity” value in the assay on H1975 cells [2] turned out to be 66. In the assay on H1975 cells [3], the “Selective inhibitory activities” value is recorded as 5.2.

With `C=CC(=O)Nc1cc(Nc2nccc(-c3cnc4c(ccn4C)c3)n2)c(OC)cc1OCCN(C)C` [Compound Z-117], the IC50 is 1300 nM in the assay with A431 cells [1] (MTT, 72 h); over 10000 nM with NIH3T3 cells; 19 nM in the assay with H1975 cells [2]; 18 nM in the assay on H1975 cells [3]; 164 nM with A431 cells [4]; 8 nM at EGFR WT kinase. The “selective inhibitory activity” value in the assay on H1975 cells [2] is 68.5. For the same compound, the “Selective inhibitory activities” value in the assay with H1975 cells [3] was 9.1.

`C=CC(=O)Nc1cc(Nc2ncc(Cl)c(-c3cnc4c(ccn4C(C)C)c3)n2)c(OC)cc1N(C)CCN(C)C` [Compound Z-125]: the IC50 amounted to 1320 nM with A431 cells [1] (MTT, 72 h); 4660 nM in the assay on NIH3T3 cells; 13 nM in the assay with H1975 cells [2]; 47 nM in the assay on H1975 cells [3]; 291 nM in the assay on A431 cells [4]; 14 nM against EGFR WT kinase. The “selective inhibitory activity” value with H1975 cells [2] is recorded as 101.2. In addition, in the assay with H1975 cells [3], the “Selective inhibitory activities” value worked out at 6.2.

As for `C=CC(=O)Nc1cc(Nc2ncc(Cl)c(-c3cnc4c(ccn4C4CC4)c3)n2)c(OC)cc1N(C)CCN(C)C` [Compound Z-126], the IC50 with A431 cells [1] (MTT, 72 h) turned out to be 495 nM; in the assay with NIH3T3 cells, 4910 nM; in the assay on H1975 cells [2] it was 10 nM; in the assay with H1975 cells [3] it was 20 nM; in the assay with A431 cells [4] it was 229 nM; on EGFR WT kinase, 7 nM. For the same compound, the “selective inhibitory activity” value with H1975 cells [2] is 49.5. Besides, the “Selective inhibitory activities” value in the assay on H1975 cells [3] is on record as 11.5.
